16 compounds from PubChem BioAssay AID2693 (Broad Institute, 2010) can be followed below.

The term MIC denotes the lowest concentration found to suppress growth.

In brackets after ≈: the same amount, converted by molar mass. Records with an inconclusive call do not appear. Activity calls are given as the source filed them.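 How the source made its calls: active means a dose response whose lowest growth-blocking dose, signal 3 SD under solvent wells, sits below the top dose; inconclusive means compound fluoresces without dose trend, or replicates split around top dose; inactive means no growth loss up to the top dose.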

In the experiment the test system is S. cerevisiae SKY197-pL101 growth, alamar blue fluorescence, 9 h. Nature of the experiment: yeast viability loss, SKY197-pL101 strain – Alamar Blue fluorescence, MIC, counter-screen for polyadenylation inhibitor project, dose response (AID 2693). A general note: Alamar Blue is a resazurin reagent that responds to reducing activity.
For the compound `COc1cc(/C=C2/CC/C(=C/c3ccc(O)c(OC)c3)C2=O)ccc1O`, the MIC is > 50 µM (inactive).
`CCN1/C(=C\C=C\c2sc3ccccc3[n+]2CC)Sc2ccccc21`: the MIC is 4.8 µM.
Consider `N#C/C(=C/c1ccc([N+](=O)[O-])o1)c1nc2ccccc2[nH]1`, for which the MIC is 2.3 µM (≈ 0.645 µg/mL).
On to `O=C(Oc1c(-c2ccccc2)c(=O)n2c3c(cccc13)CC2)c1cccc([N+](=O)[O-])c1`, for which the MIC is > 50 µM (inactive).
Take `COc1cc(/C=C2/SC(=S)N(Cc3ccccc3)C2=O)cc(OC)c1O`: the MIC was > 50 µM (inactive).
Take `Cc1ccc(-c2nn3c(C)nnc3s2)cc1NC(=O)CSc1ccc(Cl)cc1`: the MIC was > 50 µM (inactive).
For the compound `N#CC1(C#N)C2=C(CCCC2)NC(c2ccccc2)C1(C#N)C#N` (stereo unspecified), the MIC was 50 µM (≈ 15.7 µg/mL).
For `O=C(O)CN1C(=O)/C(=C\c2ccc(N3CCCCC3)o2)SC1=S`, the MIC is 37 µM (≈ 13 µg/mL).
As to `Cc1ccc2nc(/C(C#N)=C/c3ccc([N+](=O)[O-])o3)[nH]c2c1`, the MIC is 2.3 µM (≈ 0.677 µg/mL).
With `COc1cc(/C=C2\SC(=S)N(NC(=O)c3ccncc3)C2=O)ccc1O`, the minimal inhibitory concentration (MIC) is 25 µM (≈ 9.69 µg/mL).
`CC(=O)c1ccc(Sc2ccccc2)c([N+](=O)[O-])c1`: the MIC was > 50 µM (inactive).
For the compound `O=C(COC(=O)Cc1ccc(S(=O)(=O)N2CCOCC2)s1)NCc1ccc(Cl)cc1`, the MIC is > 50 µM (inactive).
On to `Cc1ccc(Nc2c(-c3ccc(C)o3)nc3ncccn23)cc1`, for which the MIC is > 50 µM (inactive).
For `Nc1ncnc2c1ncn2C1OC(CO)CC1O` (stereo unspecified), the MIC was > 50 µM (inactive).
With `Cc1ccc(C(=O)c2no[n+]([O-])c2C(=O)c2ccc(C)cc2)cc1` the figure was 3.1 µM (≈ 0.999 µg/mL).
As for `CCOc1cc(/C=C2\N=C(SC(C)C(N)=O)N(c3ccc(OC(F)F)cc3)C2=O)ccc1O` (stereo unspecified), the figure is > 50 µM (inactive).
